In patent publication US12728121B2, “Compositions and methods for treating idiopathic pulmonary fibrosis” (Seyltx, Inc., priority 2019, dated 2026):

Experiments:
Type in all cases: in vivo, Mouse/C57BL/6
BLM-induced fibrosis [1] = experiment: Bleomycin (BLM)-induced lung fibrosis in mice: Gomori's Trichrome score of lung sections; conditions: for Trichrome score (average) / % reduction in fibrosis: day 21; for Trichrome score (average): BLM 2.5 U/kg intratracheal, p.o. once daily 14 days from day 7, mg/kg: Pirfenidone 300, Bromantane 20, Ifenoprodil 30, Radiprodil 30, Bemithyl 200, Dexamethasone 0.25, Repirinast 90, Normal 1.00, Vehicle 4.59; for Trichrome score response versus BLM-vehicle group (in words) / percent reduction in lung fibrosis in comparison to the BLM-vehicle group (in words): doses as Table 1, order: Dexamethasone and Repirinast, followed by Ifenprodil and Radiprodil; for % reduction in fibrosis: from Trichrome scores relative to vehicle and normal groups, doses as Table 1, p.o. once daily 14 days; for improvement in lung fibrosis, loss of body weight, Trichrome score and mortality as compared to BLM-vehicle (conclusion, in words): oral administration, Dexamethasone 0.25, Repirinast 90, Ifenprodil 30, Radiprodil 30 mg/kg
Description: (§1) The mouse species or strain was Mouse/C57BL/6, the mice being 8-10 week old males. Nine groups of 10 mice each were obtained from Charles River Laboratories. Each group was randomized based on body weight. Bleomycin (BLM) was obtained from Euroasias.
(§2) The mice were anesthetized with isoflurane/O2 mixture. Bleomycin (BLM) was then administered to the mice intratracheally (PennCentury)—single bolus, at 2.5 U/kg body weight in 50 μl sterile saline.
(§3) Seven days after the bleomycin is administered, and fibroblasts have generally proliferated, six of the nine groups of IT bleomycin challenged mice were be dosed orally (p.o.) once a day with Bromantane, Ifenoprodil, Radiprodil, Bemithyl, Dexamethasone, or Repirinast at specified amounts per kg of body weight (mg/kg) daily for 14 consecutive days. The amounts are set out in Table 1 below. The vehicle used was 0.5% carboxymethyl cellulose (CMC). Prifenidone was also prepared in 0.5% CMC and administrated orally once a day to one of the nine IT bleomycin challenged mice groups beginning for 14 consecutive days. Vehicle and no-BLM control groups received 0.5% CMC orally for 14 consecutive days.
On day 21 of the study, 4 hours after the last dose, the mice were sacrificed and plasma was collected and frozen for cytokine analysis (testing for IL-6, IL-12, TGFβ, IL-13 proteins, or fibrosis markers). Bronchoalveolar lavage fluid (BALF) was collected and frozen for optional cytokine analyses and cell counts pending the initial data. The lungs were then excised, weighed and fixed in formalin. Gomori's Trichrome stain, a histological stain, was used to determine collagen content.
Trichrome Score: A trichrome score measures the level of scarring to the lungs caused by the disease. The greater the trichrome score, the greater the scarring.
Formalin fixed lung samples were submitted to affiliated histopathology laboratory for histopathological analysis subjected Gomori's Trichrome stain, a histological stain, which was used to determine collagen content.
Each lung was divided into ten sections. All ten sections were stained and evaluated. A board certified veterinarian pathologist assessed the presence of lung fibrosis and severity score—The expression of collagen (associated with fibrosis) is determined from the ratio of the stained area versus the total area of the lung section.

BLM-induced fibrosis [2] = experiment: Bleomycin (BLM)-induced lung fibrosis in mice: mortality rate over 21 days; conditions: doses as Table 1; for Fatality Number: deaths/mice per group over 21 days, Vehicle 2/10; for percent survival (in words): order: Dexamethasone and Repirinast, followed by Ifenprodil and Radiprodil; for Percent Fatality: over 21 days, Vehicle 20%
Description: as §1, §2, §3
Mortality Rate: the mortality rate in each group was also observed over 21 days.

[3] = Bleomycin (BLM)-induced lung fibrosis in mice: body weight over 21 days; conditions: for Percent Change in Body Weight / Body Weight: doses as Table 1; for Body Weight: group mean; for changes in body weight as compared to the BLM-vehicle group (in words): doses as Table 1, p.o. once daily
Description: as §1, §2, §3
Body Weight: The body weights were measured over 21 days using a laboratory balance.

SMILES | Trichrome score (average) (BLM-induced fibrosis [1]) | Trichrome score response versus BLM-vehicle group (in words) (BLM-induced fibrosis [1]) | % reduction in fibrosis (BLM-induced fibrosis [1]) | Fatality Number (BLM-induced fibrosis [2]) | Percent Fatality (BLM-induced fibrosis [2]) | Percent Change in Body Weight ([3]; 7-Nov) | Body Weight ([3]; 7-Nov) | Percent Change in Body Weight ([3]; 8-Nov) | Body Weight ([3]; 8-Nov) | Percent Change in Body Weight ([3]; 9-Nov) | Body Weight ([3]; 9-Nov) | Percent Change in Body Weight ([3]; 12-Nov) | Body Weight ([3]; 12-Nov) | Percent Change in Body Weight ([3]; 14-Nov) | Body Weight ([3]; 14-Nov) | Percent Change in Body Weight ([3]; 16-Nov) | Body Weight ([3]; 16-Nov) | Percent Change in Body Weight ([3]; 20-Nov) | Body Weight ([3]; 20-Nov) | Percent Change in Body Weight ([3]; 22-Nov) | other results
C[C@@H]1C[C@H]2[C@@H]3CCC4=CC(=O)C=C[C@]4(C)[C@@]3(F)[C@@H](O)C[C@]2(C)[C@@]1(O)C(=O)CO [Dexamethasone] | 2.45 | response was better | 59.6% | 2/10 | 20% | 0.0% | 24.3 g | −0.2% | 24.1 g | −0.6% | 23.7 g | −1.9% | 22.4 g | −1.6% | 22.7 g | −0.9% | 23.4 g | −1.5% | 22.7 g | −0.1% | percent reduction in lung fibrosis in comparison to the BLM-vehicle group (in words) (BLM-induced fibrosis [1]): higher; improvement in lung fibrosis, loss of body weight, Trichrome score and mortality as compared to BLM-vehicle (conclusion, in words) (BLM-induced fibrosis [1]): showed improvement; percent survival (in words) (BLM-induced fibrosis [2]): higher; Body Weight ([3]; 22-Nov): 24.2 g; Percent Change in Body Weight ([3]; 26-Nov): 0.3%; Body Weight ([3]; 26-Nov): 24.5 g; Percent Change in Body Weight ([3]; 28-Nov): 0.7%; Body Weight ([3]; 28-Nov): 25.0 g; changes in body weight as compared to the BLM-vehicle group (in words) [3]: showed improvement beginning on Day 5
C[C@@H]([C@H](O)c1ccc(O)cc1)N1CCC(Cc2ccccc2)CC1 (stereo in doubt) [Ifenoprodil, 4-[2-(4-benzylpiperidin-1-ium-1-yl)-1-hydroxypropyl] phenol; 2,3,4-trihydroxy-4-oxobutanoate] | 3.37 | response was better | 34.0% | 0/10 | 0% | 0.0% | 24.4 g | −0.1% | 24.3 g | −0.3% | 24.1 g | −2.0% | 22.4 g | −1.3% | 23.1 g | −0.8% | 23.6 g | −0.3% | 24.1 g | 0.5% | percent reduction in lung fibrosis in comparison to the BLM-vehicle group (in words) (BLM-induced fibrosis [1]): higher; improvement in lung fibrosis, loss of body weight, Trichrome score and mortality as compared to BLM-vehicle (conclusion, in words) (BLM-induced fibrosis [1]): showed improvement; percent survival (in words) (BLM-induced fibrosis [2]): higher; Body Weight ([3]; 22-Nov): 24.9 g; Percent Change in Body Weight ([3]; 26-Nov): 0.2%; Body Weight ([3]; 26-Nov): 24.6 g; Percent Change in Body Weight ([3]; 28-Nov): 0.7%; Body Weight ([3]; 28-Nov): 25.1 g; changes in body weight as compared to the BLM-vehicle group (in words) [3]: showed improvement beginning on Day 5
Cc1ccc(=O)n(-c2ccccc2)c1 [Pirfenidone (+), 5-methyl-1-phenylpyridin-2(1H)-one] | 4.09 | minimal improvement | 13.9% | 2/10 | 20% | 0.0% | 24.0 g | 0.3% | 24.2 g | −0.5% | 23.5 g | −2.2% | 21.7 g | −2.9% | 21.0 g | −3.2% | 20.8 g | −3.7% | 20.3 g | −2.9% | Body Weight ([3]; 22-Nov): 21.1 g; Percent Change in Body Weight ([3]; 26-Nov): −3.1%; Body Weight ([3]; 26-Nov): 20.9 g; Percent Change in Body Weight ([3]; 28-Nov): −3.2%; Body Weight ([3]; 28-Nov): 20.7 g
